# According to US4122202A, “Amino-3H-isobenzofuranones N-substitutes and their therapeutic application” (Societe Cortial, priority 1975, dated 1978):
# Read-outs that look alike come from different tables or passages of the source.
# Key:
# [1] = Oral toxicity in mice (LDO, LD50); type: in vivo; conditions: mouse, in vivo; for LD50 at 336 h: gummy julep (No. 1 and 13 in Tween), 2 weeks observation
# Method: (§1) This toxicity is estimated by the calculation of the lethal dose of 50 (LD 50) which determines the fatal dose of the substance for 50% of the animals tested. This determination was effected in accordance with a modification of the method by Litchfield and Wilcoxon (J. Pharmacol. Exp. Therap. 1949, 96, 99-113).
# (§2) Swiss mice without specific pathogenic organisms were kept in air conditioned rooms 24 to 48 hours before the start of the tests. They were divided into batches of 5.male. and 5.female.. With the animals unfed for 24 hours, the substances were intragastically administered in suspension in 2% Tween 80 or in 6% gummy julep in a volume equivalent to 0.1 ml per 10 g of the weight of the animal.
# (§3) They remained under observation for two weeks before being killed and subjected to an autopsy.
# (§4) All products were administered in gummy julep except No. 1 and No. 13 which were administered in Tween. The analgesic activity were determined in mice by utilizing as a nociceptive agent, phenylbenzoquinone (PBQ) (modification of the method by Siegmund and co-workers Proc. Soc. Exp. Biol. Med. 1957, 95, 729-31). The process consists of seeking a possible protection for the mouse vis-a-vis abdominal twisting and stretching of the hind legs induced by the parental injection of PBQ. 25 minutes after having orally administered the products to be tested in suspension in 2% Tween 80 or in 6% gummy julep, the PBQ solution was injected and the mice were observed after 5 minutes during the following 5 minutes. For certain products, AD 50 is presented as a measure of activity.
# rats [2] = assay: Ulcerous activity (modified method of Colot); type: in vivo, female EOPS rats; conditions: 250 mg/kg oral daily
# Method: Ulcerous activity was determined according to a modification of the method by Colot (Technical notions of general pharmacology, 1972) in the case of femal EOPS rats of approximately 150 g. The animals were left without absolutely any food, while the test products were orally administered on a daily basis in suspension in 2% Tween at a volume of 0.5 ml/100 g. The animals were killed under chloroform and the stomachs were removed. Ulcerous activity was established by means of an index taking into account the degree of ulceration and the percentage of animals effected.
# In the table given below, a comparison is shown between the results obtained with niflumic acid and product No. 1.
# mice [3] = assay: Analgesic activity: protection against abdominal twisting induced by phenylbenzoquinone (PBQ); type: in vivo; conditions: for ED50: Mus musculus, oral, read-out: AD 50 (the source's name)
# Method: as §4, with “activity. […]” for “activity.”
# mice [4] = assay: Oral toxicity in mice (LDO, LD50); type: in vivo; conditions: gummy julep (No. 1 and 13 in Tween), 2 weeks observation
# Method: as §1, §2, §3, §4
# rats [5] = assay: Anti-inflammatory activity: carragenic test (carragenine-induced edema of the hind leg); type: in vivo, male rats; conditions: for ED50: oral
# Method: All products were administered in gummy julep except No. 1 and No. 13 which were administered in suspension in Tween. The anti-inflammatory activity was determined by the carragenic test with male rats. Inflammation was induced by the injection of 0.1 ml of a 0.5% suspension of carragenine in a physiological serum into the muscular fasciculus of the metatarsal region of the hind leg of the animal. The substance to be tested was orally administered simultaneously with the carragenine. The edema was measured by phethysmography 1, 2, 3, 4, 5 and 6 hours after the administration of the carragenine.
# **50 mg/kg No. 13 which were administered in suspension in Tween.
# [6] = Rattus norvegicus, 2H, read-out: ED 50
# [7] = Rattus norvegicus, 4H, read-out: ED 50
Compound,LD50 at 336 h [1] [mg/kg],% activity (mice [3]; 200 mg/kg oral) [%],LDO (maximum dose which did not lead to any mortality) (mice [4]),"% activity (inhibition of edema) (rats [5]; 400 mg/kg oral, 4H) [%]","% activity (inhibition of edema) (rats [5]; 200 mg/kg oral, 4H) [%]",ED50 (mice [3]) [mg/kg],"% activity (inhibition of edema) (rats [5]; 150 mg/kg oral, 2H) [%]","% activity (inhibition of edema) (rats [5]; 150 mg/kg oral, 4H) [%]","% activity (inhibition of edema) (rats [5]; 300 mg/kg oral, 2H) [%]","% activity (inhibition of edema) (rats [5]; 300 mg/kg oral, 4H) [%]",also measured
O=C1OC(Nc2ccc3c(c2)OCO3)c2ccccc21 (stereo not drawn) [Product 1],~2600,–,–,–,–,–,–,–,–,–,IA: Acute ulceration index (rats [2]; 1 day): 0; IC: Ulceration index on the way of cicatrization (rats [2]; 1 day): 1.5; IA: Acute ulceration index (rats [2]; 3 days): 5; IC: Ulceration index on the way of cicatrization (rats [2]; 3 days): 22
CCC1(CC)Oc2ccc(NC3OC(=O)c4ccccc43)cc2O1 (stereo not drawn) [Product 2],~2000,29,~ 1500 mg/kg,20,–,–,–,–,–,–,–
O=C1OC(Nc2ccc3c(c2)OC2(CCCCC2)O3)c2ccccc21 (stereo not drawn) [Product 3],≥ 2000,29,1000 to 2000 mg/kg,21,20,–,–,–,–,–,–
CCCC1(CCC)Oc2ccc(NC3OC(=O)c4ccccc43)cc2O1 (stereo not drawn) [Product 4],~2000,20,–,13,23,–,–,–,–,–,–
CCCCC1(C)Oc2ccc(NC3OC(=O)c4ccccc43)cc2O1 (stereo not drawn) [Product 5],> 2000,42,> 2000 mg/kg,17,28,270,–,–,–,–,–
CCCC1(CC)Oc2ccc(NC3OC(=O)c4ccccc43)cc2O1 (stereo not drawn) [Product 6],≥ 2000,25,1000 to 2000 mg/kg,3,22,420,–,–,–,–,–
CC1(C)Oc2ccc(NC3OC(=O)c4ccccc43)cc2O1 (stereo not drawn) [Product 7],–,81,~ 1000 mg/kg,25,20,80,–,–,–,–,"mortality at 336 h ([1]; at 2000 mg/kg, read-out: deaths (LD50 column)): 70%; % activity (inhibition of edema) (rats [5]; 200 mg/kg oral, 2H): 19%; % activity (inhibition of edema) (rats [5]; 400 mg/kg oral, 2H): 23%"
COc1ccc2c(c1OC)C(=O)OC2Nc1ccc2c(c1)OCO2 (stereo not drawn) [Product 8],~1000,54,750 to 1000 mg/kg,48,66,180,–,–,–,–,"% activity (inhibition of edema) (rats [5]; 200 mg/kg oral, 2H): 68%; % activity (inhibition of edema) (rats [5]; 400 mg/kg oral, 2H): 74%; ED50 (rats [5]; [6]): 180 mg/kg; ED50 (rats [5]; [7]): 230 mg/kg"
Cc1cc2c(cc1NC1OC(=O)c3ccccc31)OCO2 (stereo not drawn) [Product 9],> 2000,–,1000 to 2000 mg/kg,60,39,70,–,–,–,–,"% activity (mice [3]; 100 mg/kg oral): 83%; % activity (inhibition of edema) (rats [5]; 200 mg/kg oral, 2H): 29%; % activity (inhibition of edema) (rats [5]; 400 mg/kg oral, 2H): 71%; ED50 (rats [5]; [6]): 220 mg/kg; ED50 (rats [5]; [7]): 240 mg/kg"
CCN(c1ccc2c(c1)OCO2)C1OC(=O)c2ccccc21 (stereo not drawn) [Product 12],~590,–,–,–,–,45,–,–,–,–,"% activity (mice [3]; 50 mg/kg oral): 61%; % activity (inhibition of edema) (rats [5]; 25 mg/kg (footnote *) oral, 2H): 33%; % activity (inhibition of edema) (rats [5]; 25 mg/kg (footnote *) oral, 4H): 17%; % activity (inhibition of edema) (rats [5]; 50 mg/kg oral, 2H): 43%; % activity (inhibition of edema) (rats [5]; 50 mg/kg oral, 4H): 28%"
O=C1OC(Nc2ccc3c(c2)OCCO3)c2ccccc21 (stereo not drawn) [Product 13],≥ 3000,–,≥ 1000 mg/kg,–,–,100,77,50,76,55,% activity (mice [3]; 150 mg/kg oral): 73%; ED50 (rats [5]; [6]): 230 mg/kg; ED50 (rats [5]; [7]): 210 mg/kg
COc1ccc2c(c1OC)C(=O)OC2Nc1ccc2c(c1)OCCO2 (stereo not drawn) [Product 14],–,73,> 2000 mg/kg,63,33,150,–,–,–,–,"% activity (inhibition of edema) (rats [5]; 200 mg/kg oral, 2H): 63%; % activity (inhibition of edema) (rats [5]; 400 mg/kg oral, 2H): 79%; ED50 (rats [5]; [6]): 175 mg/kg; ED50 (rats [5]; [7]): 260 mg/kg"
O=C(O)c1cc2c(cc1NC1OC(=O)c3ccccc31)OCO2 (stereo not drawn) [Product 15],–,26,> 2000 mg/kg,–,–,–,15,21,15,4,–
COC(=O)c1cc2c(cc1NC1OC(=O)c3ccccc31)OCO2 (stereo not drawn) [Product 16],–,–,> 2000 mg/kg,–,–,–,12,10,–,–,% activity (mice [3]; 100 mg/kg oral): 33%
O=C1OC(Nc2ccc3c(c2)OCC(CO)O3)c2ccccc21 (stereo not drawn) [Product 17],–,28,> 2000 mg/kg,–,–,420,27,17,29,8,–
O=C1OC(Nc2ccc3c(c2)OC(CO)CO3)c2ccccc21 (stereo not drawn) [Product 18],–,44,> 2000 mg/kg,–,–,260,16,6,22,0,–
CC(=O)OCC1COc2ccc(NC3OC(=O)c4ccccc43)cc2O1 (stereo not drawn) [Product 19],–,–,> 2000 mg/kg,–,–,500,21,23,26,27,% activity (mice [3]; 300 mg/kg oral): 21%
CC(=O)OCC1COc2cc(NC3OC(=O)c4ccccc43)ccc2O1 (stereo not drawn) [Product 20],–,13,> 2000 mg/kg,–,–,550,16,3,10,13,–
O=C1OC(Nc2ccc3c(c2)COCO3)c2ccccc21 (stereo not drawn) [Product 21],–,61,> 2000 mg/kg,–,–,275,–,–,44,43,ED50 (rats [5]; [6]): 400 mg/kg; ED50 (rats [5]; [7]): 500 mg/kg
Cc1cc(NC2OC(=O)c3ccccc32)c(C)c2c1OCOC2 (stereo not drawn) [Product 22],–,38,> 2000 mg/kg,–,–,260,35,31,–,–,–
"N(2,2-dimethyl benzodioxol-1,3 yl-5) 3-amino 3H-isobenzofuranone-1 [Product 7]",–,86,–,68,–,–,68,43,–,–,"% activity (inhibition of edema) (rats [5]; 400 mg/kg oral, 2H): 72%; ED50 (rats [5]; 2H): 75 mg/kg; ED50 (rats [5]; 4H): 220 mg/kg"
